Assay results as given in patent EP4786474A1, “CRYSTALLINE FORM OF QUINAZOLINE DERIVATIVE AND PREPARATION METHOD THEREFOR” (Jiangsu Hengrui Pharmaceuticals Co., Ltd., priority 2023, dated 2025).

What was measured:
[1] = tested on: EGFR wild-type Ba/F3 cells; test: Ba/F3 cell proliferation assay (Celltiter-Glo); type: cell-based; details: 72 h incubation
Procedure: (§1) EGFR wild-type Ba/F3 cells (Cobioer, Cat. No. CBP73110) in the logarithmic growth phase were seeded into a 96-well plate at 2.5 × 10^3 cells/100 µL in a growth medium, and HER2 wild-type Ba/F3 cells (Cobioer, Cat. No. CBP73110) or HER2 A775_G776insYVMA mutant Ba/F3 cells (Cobioer, Cat. No. CBP73184) in the logarithmic growth phase were seeded into a 96-well plate at 5 × 10^3 cells/100 µL in a growth medium. The plates were placed in a cell incubator at 37 °C overnight. The next day, the compound diluted in a 3-fold gradient with a medium was added to the plates at 100 µL/well. All treatments were performed in triplicate. The plates were incubated in the cell incubator at 37 °C for another 72 h. Celltiter-Glo Luminescent cell viability assay was performed.
(§2) The cell proliferation rate corresponding to each well was calculated according to the following formula: proliferation% = (test compound well G3 - G0 average value)/(DMSO control well G3 average value - G0 average value) × 100. According to the proliferation rate and concentration corresponding to each gradient concentration well, a gradient curve for cell proliferation was fitted using Prism Graphpad software, and the GI50 (GI50 is defined as the compound concentration corresponding to a cell proliferation inhibition rate of 50%) of the compound was calculated.

[2] = tested on: HER2 A775_G776insYVMA mutant Ba/F3 cells; test: Ba/F3 cell proliferation assay (Celltiter-Glo); type: cell-based; details: 72 h incubation
Procedure: as §1, §2

[3] = tested on: HER2 wild-type Ba/F3 cells; test: Ba/F3 cell proliferation assay (Celltiter-Glo); type: cell-based; details: 72 h incubation
Procedure: as §1, §2

[4] = DVS (dynamic vapor sorption) hygroscopicity testing; type: physicochemical
From the text: According to the description of hygroscopicity characteristics and the definition of hygroscopic weight gain in "General Rule 9103, Guidelines for Hygroscopicity Trials for Pharmaceuticals" in the Chinese Pharmacopoeia, Volume IV, 2015 Edition: • deliquescent: sufficient water is absorbed to form a liquid; • extremely hygroscopic: the hygroscopic weight gain is not less than 15%; • hygroscopic: the hygroscopic weight gain is less than 15% but not less than 2%; • slightly hygroscopic: the hygroscopic weight gain is less than 2% but not less than 0.2%; • nonhygroscopic or practically nonhygroscopic: the hygroscopic weight gain is less than 0.2%.
DVS refers to dynamic vapor sorption: The analysis was performed using SMS DVS Advantage; at 25 °C, the humidity was changed as follows: 50%-95%-0%-95%-50%, in steps of 10% (5% for the last step) (specific humidity ranges are shown in corresponding patterns, and those listed here were used in most cases); the criterion was dm/dt being not greater than 0.002%.

[5] = Influencing factor stability study; type: physicochemical
Procedure: Samples of the crystal forms D, E, and H were spread in open containers and left to stand under light exposure (4500 Lux), high temperature (40 °C and 60 °C), and high humidity (RH 75% and RH 92.5%) conditions for 1 month to investigate their stability.

[6] = Long-term/accelerated stability; type: physicochemical
Procedure: Samples of the crystal forms D, E, and H were left to stand under 25 °C/60% RH and 40 °C/75% RH conditions to investigate their stability: Table 30.

C=CC(=O)N1[C@@H]2CC[C@H]1C[C@@H](Oc1ccc3ncnc(Nc4ccc(Oc5ccn6ncnc6c5)c(C)c4F)c3c1)C2 [Example 1, 1-(endo-3-((4-((4-([1,2,4]Triazolo[1,5-a]pyridin-7-yloxy)-2-fluoro-3-methylphenyl)amino)quinazolin-6-yl)oxy)-8-azabicyclo[3.2.1]octan-8-yl)prop-2-en-1-one]
EGFR WT/ BaF3 Imax % [1]: 100%
HER2 A775_G776 ins YVMA/ BaF3 Imax % [2]: 100%
HER2 WT/ BaF3 Imax % [3]: 100%

Cc1cc(Nc2ncnc3ccc(NC4=NC(C)(C)CO4)cc23)ccc1Oc1ccn2ncnc2c1 [Tucatinib, reference compound]
HER2 A775_G776 ins YVMA/ BaF3 Imax % [2]: 100%

C=CC(=O)N1[C@@H]2CC[C@H]1C[C@@H](Oc1ccc3ncnc(Nc4ccc(Oc5ccn6ncnc6c5)c(C)c4F)c3c1)C2 [Crystal form H, 1-(endo-3-((4-((4-([1,2,4]Triazolo[1,5-a]pyridin-7-yloxy)-2-fluoro-3-methylphenyl)amino)quinazolin-6-yl)oxy)-8-azabicyclo[3.2.1]octan-8-yl)prop-2-en-1-one]
hygroscopic weight gain ([4]; accelerated experimental conditions, 70% RH): about 0.12%
hygroscopic weight gain ([4]; extreme conditions, 90% RH): about 0.22%
hygroscopic weight gain ([4]; normal storage conditions, 25 °C and 60% RH): about 0.09%
Color and appearance ([5]; 40 °C, 1 month): White powder
Crystal form ([5]; 40 °C, 1 month): No change
Purity (%) ([5]; 40 °C, 1 month): 99.4%
Color and appearance ([5]; 40 °C, 7 days): White powder
Crystal form ([5]; 40 °C, 7 days): No change
Color and appearance ([5]; 40 °C, 14 days): White powder
Crystal form ([5]; 40 °C, 14 days): No change
Color and appearance ([5]; 60 °C, 1 month): White powder
Crystal form ([5]; 60 °C, 1 month): No change
Purity (%) ([5]; 60 °C, 1 month): 99.4%
Color and appearance ([5]; 60 °C, 7 days): White powder
Crystal form ([5]; 60 °C, 7 days): No change
Color and appearance ([5]; 60 °C, 14 days): White powder
Crystal form ([5]; 60 °C, 14 days): No change
Color and appearance ([5]; 75% RH, 1 month): White powder
Crystal form ([5]; 75% RH, 1 month): No change
Color and appearance ([5]; 75% RH, 7 days): White powder
Crystal form ([5]; 75% RH, 7 days): No change
Color and appearance ([5]; 75% RH, 14 days): White powder
Crystal form ([5]; 75% RH, 14 days): No change
Color and appearance ([5]; 92.5% RH, 1 month): White powder
Crystal form ([5]; 92.5% RH, 1 month): No change
Color and appearance ([5]; 92.5% RH, 7 days): White powder
Crystal form ([5]; 92.5% RH, 7 days): No change
Color and appearance ([5]; 92.5% RH, 14 days): White powder
Crystal form ([5]; 92.5% RH, 14 days): No change
Color and appearance ([5]; 4500 Lux, 1 month): White powder
Crystal form ([5]; 4500 Lux, 1 month): No change
Color and appearance ([5]; 4500 Lux, 7 days): White powder
Crystal form ([5]; 4500 Lux, 7 days): No change
Color and appearance ([5]; 4500 Lux, 14 days): White powder
Crystal form ([5]; 4500 Lux, 14 days): No change
Color and appearance ([5]; Initial, 0): White powder
Crystal form ([5]; Initial, 0): Crystal form H
Purity (%) ([5]; Initial, 0): 99.8%
physical and chemical stability ([5]; light exposure (4500 Lux), high temperature (40 °C and 60 °C), high humidity (RH 75% and RH 92.5%), 30 days): Conclusion: Standing under light exposure (4500 Lux), high temperature (40 °C and 60 °C), and high humidity (RH 75% and RH 92.5%) conditions for 30 days, the crystal form H exhibited good physical and chemical stability.
Color and appearance ([6]; 25 °C/60% RH, 1 month): White powder
Crystal form ([6]; 25 °C/60% RH, 1 month): No change
Color and appearance ([6]; 25 °C/60% RH, 2 months): White powder
Crystal form ([6]; 25 °C/60% RH, 2 months): No change
Color and appearance ([6]; 25 °C/60% RH, 3 months): White powder
Crystal form ([6]; 25 °C/60% RH, 3 months): No change
Color and appearance ([6]; 25 °C/60% RH, 6 months): White powder
Crystal form ([6]; 25 °C/60% RH, 6 months): No change
Color and appearance ([6]; 25 °C/60% RH, 14 days): White powder
Crystal form ([6]; 25 °C/60% RH, 14 days): No change
Color and appearance ([6]; 40 °C/75% RH, 1 month): White powder
Crystal form ([6]; 40 °C/75% RH, 1 month): No change
Color and appearance ([6]; 40 °C/75% RH, 2 months): White powder
Crystal form ([6]; 40 °C/75% RH, 2 months): No change
Color and appearance ([6]; 40 °C/75% RH, 3 months): White powder
Crystal form ([6]; 40 °C/75% RH, 3 months): No change
Color and appearance ([6]; 40 °C/75% RH, 6 months): White powder
Crystal form ([6]; 40 °C/75% RH, 6 months): No change
Color and appearance ([6]; 40 °C/75% RH, 14 days): White powder
Crystal form ([6]; 40 °C/75% RH, 14 days): No change
Color and appearance ([6]; Initial, 0): White powder
Crystal form ([6]; Initial, 0): Crystal form H
Purity (%) ([6]; Initial, 0): 99.8%
physical and chemical stability ([6]; long-term/accelerated conditions): Conclusion: Under long-term/accelerated conditions, the crystal form H exhibited good physical and chemical stability.
